According to patent US20220387457A1 (Qlaris Bio, Inc., priority 2020, published 2022):

Legend:
[1] = Plasma pharmacokinetics of CKLP1 and levcromakalim after topical dosing in hound dogs; type: in vivo, hound dog; conditions: for AUC(0-t) / Cmax / Tmax / half-life: plasma
Method: To assess the pharmacokinetic parameters, hound dogs (n=3) were treated with 50 μL topical ocular administration of 10 mM CKLP1 or vehicle (PBS) (n=2) in both eyes, once daily for eight days. Blood (approximately 3 mL) was collected in heparin blood collection tubes at eight different time points (5 minutes, 15 minutes, 30 minutes, 60 minutes, 2 hours, 4 hours, 8 hours and 24 hours) following treatment on days 1, 4 and 8. Plasma was separated from the blood by centrifugation at 2000 rpm for 5 minutes.
Immediately prior to analysis, tissues were thawed and their weight was measured. PBS was added at double the tissue volume homogenized in a rotor stator homogenizer for 30 seconds. […] Detection was accomplished using positive electrospray ionization with multiple-reaction monitoring (MRM). […] Data were acquired and analyzed using Waters MassLynx v4.1 software.

[2] = Toxicokinetics after escalating intravenous doses of CKLP1 in beagles; type: in vivo, beagle dog; set-up: AUCTlast/Dose: unit not given here; conditions: for AUC(0-t) / Cmax / RAUC / AUC(0-inf) / C0 / Tlast / Tmax / Vd / clearance / half-life / λZ range: dog, in vivo; for AUCTlast/Dose / Cmax/Dose: female dog
Method: Two beagles (one male and one female) were intravenously injected with escalating doses of CKPL1 (0.05 mg/kg, 0.5 mg/kg, 1.5 mg/kg, 3 mg/kg, and 5 mg/kg) to assess the toxicity of CKLP1. The injection was done through the cephalic vein and CKLP1 was administered in a phosphate buffered saline solution ((0.096% sodium phosphate dibasic, 0.089% sodium dihydrogen orthophosphate monohydrate, 0.83% sodium chloride) pH 6.5±0.1 in sterile water for injection USP). The dosing schedule is shown below in Table 3.
The following parameters and endpoints were evaluated: mortality, clinical observations, body and organ weights, and food consumption. Bioanalytical samples for toxicokinetic parameters (for both CKLP1 and leveromakalim) were collected after each dose level (days 1, 3, 8, 10, and 14) at predose, 1, 3, 6, 8, and 24 hours postdose. Animals were released from the study after completion of the bioanalytical sample collection schedule.
Toxicokinetics (TK) were determined based on the individual exposures for each animal on each sampled study day (days 1, 3, 8, 10, and 14). […] Predose samples had no quantifiable exposure in any animal on any day, with the exception of the female dog on day 10. The predose concentration for the female dog on day 10 was excluded from the TK analysis in order to allow for estimation of the IV C0.

[3] = CKLP1, topical 10 mM CKLP1 once daily, Day 1
[4] = CKLP1, topical 10 mM CKLP1 once daily, Day 4
[5] = CKLP1, topical 10 mM CKLP1 once daily, Day 8
[6] = hound, dog, topical or ocular, 10 mM CKLP1, 50 µL in each of both eyes, CKLP1, topical 10 mM CKLP1 once daily, Day 1
[7] = hound, dog, topical or ocular, 10 mM CKLP1, 50 µL in each of both eyes, CKLP1, topical 10 mM CKLP1 once daily, Day 4
[8] = hound, dog, topical or ocular, 10 mM CKLP1, 50 µL in each of both eyes, CKLP1, topical 10 mM CKLP1 once daily, Day 8
[9] = IV CKLP1 0.05 mg/kg, study day 1
[10] = IV CKLP1 0.5 mg/kg, study day 3
[11] = IV CKLP1 1.5 mg/kg, study day 8

Compound CC1(C)Oc2ccc(C#N)cc2[C@@H](N2CCCC2=O)[C@@H]1OP(=O)(O)O [CKLP1] has a Clast [1, 3] of 0.0026 µg/mL, a Tlast [1, 3] of 480 min and a Clast [1, 4] of 0.0014 µg/mL. For the same compound, the Tlast [1, 4] was 1440 min, the Clast [1, 5] was 0.0003 µg/mL and the Tlast [1, 5] was 1450 min. The AUC(0-t) [1, 6] was 72.9 ng·h/mL, the Cmax [1, 6] was 0.0103 µg/mL and the Tmax ([1]; hound, dog, topical or ocular, 10 mM CKLP1, 50 µL in each of both eyes, CKLP1, topical 10 mM CKLP1 once daily, Day 1, read-out: Tmax (converted)) was 1 h. It also gave an AUC(0-t) [1, 7] of 103 ng·h/mL, a Cmax [1, 7] of 0.0122 µg/mL and a Tmax ([1]; hound, dog, topical or ocular, 10 mM CKLP1, 50 µL in each of both eyes, CKLP1, topical 10 mM CKLP1 once daily, Day 4, read-out: Tmax (converted)) of 2 h. The AUC(0-t) [1, 8] was 86.7 ng·h/mL, the Cmax [1, 8] was 0.0089 µg/mL and the Tmax ([1]; hound, dog, topical or ocular, 10 mM CKLP1, 50 µL in each of both eyes, CKLP1, topical 10 mM CKLP1 once daily, Day 8, read-out: Tmax (converted)) was 1 h. The half-life ([1]; hound, dog, topical or ocular, 10 mM, CKLP1, topical 10 mM CKLP1 once daily, Day 1) was 3.01 h, the half-life ([1]; hound, dog, topical or ocular, 10 mM, CKLP1, topical 10 mM CKLP1 once daily, Day 4) was 7.53 h and the half-life ([1]; hound, dog, topical or ocular, 10 mM, CKLP1, topical 10 mM CKLP1 once daily, Day 8) was 4.23 h. For the same compound, the Tmax ([1]; hound, dog, topical or ocular, 10 mM, topical 10 mM CKLP1, read-out: time of maximum concentration (Tmax) of CKLP1) was at most 1 h, the AUC ([1]; hound, dog, topical or ocular, CKLP1 in plasma, topical 10 mM CKLP1) was 87.7 ng·h/mL and the “AUC of CKLP1 relative to levcromakalim” value ([1]; topical 10 mM CKLP1) was 22.4 fold. For the same compound, the “Maximum concentration of CKLP1 in plasma” value ([1]; topical 10 mM CKLP1, mean of days 1, 4, 8) was 10.5 ± 1.7 ng/mL, the “conversion of CKLP1 to levcromakalim, estimate from blood concentrations” value ([1]; topical CKLP1) was 10% and the “gender differences in AUC values following each dose” value ([2]; IV CKLP1) was “less than 2 fold”. The AUC(0-t) ([2]; both sexes, beagle, CKLP1, IV 3 mg/kg, read-out: AUCTlast at MTD, sex-combined) was 107000 ng·h/mL, the Cmax ([2]; both sexes, beagle, CKLP1, IV 3 mg/kg, read-out: Cmax at MTD, sex-combined) was 16.4 µg/mL and the RAUC ([2]; iv, 0.05 mg/kg) was “LOO”. The “plasma concentrations of CKLP1 relative to levcromakalim” value ([2]; early time points after IV CKLP1) was “more than 300 fold”, the AUCTlast/Dose [2, 9] was 41900 and the Cmax/Dose [2, 9] was 7.12e+06 µg/mL. It also gave an AUCTlast/Dose [2, 10] of 41900, a Cmax/Dose [2, 10] of 5.98e+06 µg/mL and an AUCTlast/Dose [2, 11] of 40800. The Cmax/Dose [2, 11] was 6.03e+06 µg/mL, the AUCTlast/Dose ([2]; IV CKLP1 3 mg/kg, study day 10) was 42800 and the Cmax/Dose ([2]; IV CKLP1 3 mg/kg, study day 10) was 6.13e+06 µg/mL. The AUCTlast/Dose ([2]; IV CKLP1 5 mg/kg, study day 14) was 62300, the Cmax/Dose ([2]; IV CKLP1 5 mg/kg, study day 14) was 5.86e+06 µg/mL and the AUC(0-inf) ([2]; female, beagle, iv, 0.05 mg/kg) was 2110 ng·h/mL. The AUC(0-t) ([2]; female, beagle, iv, 0.05 mg/kg) was 2100 ng·h/mL, the C0 ([2]; female, beagle, iv, 0.05 mg/kg) was 0.461 µg/mL and the Cmax ([2]; female, beagle, iv, 0.05 mg/kg) was 0.356 µg/mL. The RAUC ([2]; female, beagle, iv, 0.05 mg/kg) was 1.00, the Tlast ([2]; female, beagle, iv, 0.05 mg/kg) was 24.0 h and the Tmax ([2]; female, beagle, iv, 0.05 mg/kg) was 1 h. The Vd ([2]; female, beagle, iv, 0.05 mg/kg) was 0.112 L/kg, the clearance ([2]; female, beagle, iv, 0.05 mg/kg) was 0.395 mL/min/kg and the half-life ([2]; female, beagle, iv, 0.05 mg/kg) was 3.26 h. It also gave a λZ range ([2]; female, beagle, iv, 0.05 mg/kg) of 6 to 24 h, an AUC(0-inf) ([2]; female, beagle, iv, 0.5 mg/kg) of 21200 ng·h/mL and an AUC(0-t) ([2]; female, beagle, iv, 0.5 mg/kg) of 20900 ng·h/mL. The C0 ([2]; female, beagle, iv, 0.5 mg/kg) was 3.67 µg/mL, the Cmax ([2]; female, beagle, iv, 0.5 mg/kg) was 2.99 µg/mL and the RAUC ([2]; female, beagle, iv, 0.5 mg/kg) was 10.0. The Tlast ([2]; female, beagle, iv, 0.5 mg/kg) was 24.0 h, the Tmax ([2]; female, beagle, iv, 0.5 mg/kg) was 1 h and the Vd ([2]; female, beagle, iv, 0.5 mg/kg) was 0.139 L/kg. For the same compound, the clearance ([2]; female, beagle, iv, 0.5 mg/kg) was 0.392 mL/min/kg, the half-life ([2]; female, beagle, iv, 0.5 mg/kg) was 4.11 h and the λZ range ([2]; female, beagle, iv, 0.5 mg/kg) was 6 to 24 h. It also gave an AUC(0-inf) ([2]; female, beagle, iv, 1.5 mg/kg) of 62500 ng·h/mL, an AUC(0-t) ([2]; female, beagle, iv, 1.5 mg/kg) of 61200 ng·h/mL and a C0 ([2]; female, beagle, iv, 1.5 mg/kg) of 11 µg/mL. The Cmax ([2]; female, beagle, iv, 1.5 mg/kg) was 9.05 µg/mL, the RAUC ([2]; female, beagle, iv, 1.5 mg/kg) was 29.1 and the Tlast ([2]; female, beagle, iv, 1.5 mg/kg) was 24.0 h. The Tmax ([2]; female, beagle, iv, 1.5 mg/kg) was 1 h, the Vd ([2]; female, beagle, iv, 1.5 mg/kg) was 0.162 L/kg and the clearance ([2]; female, beagle, iv, 1.5 mg/kg) was 0.4 mL/min/kg. For the same compound, the half-life ([2]; female, beagle, iv, 1.5 mg/kg) was 4.68 h, the λZ range ([2]; female, beagle, iv, 1.5 mg/kg) was 6 to 24 h and the AUC(0-inf) ([2]; female, beagle, iv, 3 mg/kg) was 129000 ng·h/mL. The AUC(0-t) ([2]; female, beagle, iv, 3 mg/kg) was 128000 ng·h/mL, the C0 ([2]; female, beagle, iv, 3 mg/kg) was 22.7 µg/mL and the Cmax ([2]; female, beagle, iv, 3 mg/kg) was 18.4 µg/mL. It also gave an RAUC ([2]; female, beagle, iv, 3 mg/kg) of 61.0, a Tlast ([2]; female, beagle, iv, 3 mg/kg) of 24.0 h and a Tmax ([2]; female, beagle, iv, 3 mg/kg) of 1 h.
